# Measurements taken from patent US8188291B2, “Heteroaryl-substituted carboxamides and their use as pharmaceuticals” (Sanofi-Aventis, priority 2006, dated 2012).
# Where a name gives a salt, the structure may show the parent alone.
# System: eNOS promoter
# Test: Activation of eNOS transcription (eNOS promoter-luciferase reporter gene assay)
# Assay type: cell-based
# Details: human endothelial cell line stably transfected with eNOS promoter-luciferase construct; 18 h incubation; determined graphically; read-out: EC50 values of transcription induction ratios (TIR)
# Procedure: Determination of the Biological Activity A) Activation of eNOS Transcription
# Activation of eNOS transcription was measured as described in detail by Li et al., “Activation of protein kinase C alpha and/or epsilon enhances transcription of the human endothelial nitric oxide synthase gene”, Mol. Pharmacol. 53 (1998) 630. Briefly, a 3.5 kB long fragment 5′ of the starting codon of the eNOS gene was cloned, sequenced and cloned in firefly luciferase expression plasmids to monitor activation of the eNOS promoter by reporter gene activity. A human endothelial cell line stable transfected and expressing this promoter-reporter construct was used for compound testing. Cells were incubated for 18 h with the compounds.
# All compounds were dissolved in sterile dimethyl sulfoxide (DMSO). A final concentration of 0.5% DMSO in complete medium was allowed. Induction of reporter gene expression in these cells was measured using a standard luciferase assay system (Promega, Cat. No. E150) according to the manufacturer's instructions. Luciferase induction in cells incubated with compounds were compared to those incubated with solvent alone. The ratio of both activities (transcription induction ratio, TIR) was plotted as a function of compound concentration. Typically, TIR values started at low concentrations at a ratio of 1, indicating no compound effect, and extended up to a maximum TIR value TIR(max) which indicates the increase of the eNOS transcription. EC50 values of transcription induction ratios as a function of compound concentration were determined graphically.
row,SMILES,EC50
1,"O=C(CNc1nc(-c2ccc(F)cc2)cs1)N1CCCCC1 [Example 67, 2-[4-(4-Fluoro-phenyl)-thiazol-2-ylamino]-1-(piperidin-1-yl)-ethanone trifluoroacetic acid salt]",500 to 5000 nM
2,"CC(=O)N1CCN(C(=O)CCc2ccc(-c3ccccc3F)s2)CC1 [Example 20, 1-(4-Acetyl-piperazin-1-yl)-3-[5-(2-fluoro-phenyl) -thiophen-2-yl]-propan-1-one]",500 to 5000 nM
3,"O=C(CCc1ccc(-c2ccc(OC(F)(F)F)cc2)s1)Nc1ccccc1 [Example 10, N-Phenyl-3-[5-(4-trifluoromethoxy-phenyl)-thiophen-2-yl]-propionamide]",500 to 5000 nM
4,"O=C(CCc1ccc(-c2ccc(OC(F)(F)F)cc2)s1)NCC1CC1 [Example 7, N-Cyclopropylmethyl-3-[5-(4-trifluoromethoxy-phenyl)-thiophen-2-yl]-propionamide]",< 500 nM
5,"O=C(CCc1ccc(-c2ccc(OC(F)(F)F)cc2)s1)NCC(F)(F)F [Example 8, N-(2,2,2-Trifluoro-ethyl)-3-[5-(4-trifluoromethoxy-phenyl) -thiophen-2-yl]-propionamide]",500 to 5000 nM

# Further lines, results first:
row,EC50,SMILES
1,500 to 5000 nM,"O=C(CSc1nc(-c2ccc(F)cc2)cs1)N1CCCC1 [Example 98, 2-[4-(4-Fluoro-phenyl)-thiazol-2-ylsulfanyl]-1-(pyrrolidin-1-yl)-ethanone]"
2,500 to 5000 nM,"O=C(CNc1ccc(-c2ccccc2F)nc1)N1CCCCC1 [Example 89, 2-[6-(2-Fluoro-phenyl)-pyridin-3-ylamino]-1-(piperidin-1-yl)-ethanone trifluoroacetic acid salt]"
3,500 to 5000 nM,"CC(C)(C)NC(=O)CSc1nc(-c2ccc(F)cc2)cs1 [Example 100, N-tert-Butyl-2-[4-(4-Fluoro-phenyl)-thiazol-2-ylsulfanyl]-acetamide]"
4,< 500 nM,"O=C(CNc1nc(-c2ccc(F)cc2)cs1)N1CCCC1 [Example 69, 2-[4-(4-Fluoro-phenyl)-thiazol-2-ylamino]-1-(pyrrolidin-1-yl)-ethanone trifluoroacetic acid salt]"
5,< 500 nM,"O=C(COc1ccc(-c2ccccc2F)nc1)Nc1nccs1 [Example 78, 2-[6-(2-Fluoro-phenyl)-pyridin-3-yloxy]-N-(thiazol-2-yl) -acetamide trifluoroacetic acid salt]"
6,< 500 nM,"O=C(COc1ccc(-c2ccccc2F)nc1)Nc1ccccn1 [Example 77, 2-[6-(2-Fluoro-phenyl)-pyridin-3-yloxy]-N-(pyridin-2-yl) -acetamide trifluoroacetic acid salt]"
7,< 500 nM,"Nc1nc(CCC(=O)N2CCCCC2)ccc1-c1ccccc1 [Example 79, 3-(6-Amino-5-phenyl-pyridin-2-yl)-1-(piperidin-1-yl) -propanone]"
